Consider 3 molecules from PMC13192270, “RhlR quorum-sensing receptor ligand sensitivity regulates the differential expression of phenazine genes in Pseudomonas aeruginosa” (Journal of Bacteriology, 2026).

Residue numbers refer to the chain shown, from its start. Read-outs that look alike come from different tables or passages of the source.

The test system of one experiment is LasR. More on the design: method as in PMID 28119451. To be noted: cited from earlier work.
A further experiment addresses T1, RhlR (T58V) (Pseudomonas aeruginosa, UniProt P54292, T58V).
T1 construct: expressed in transfected cells; host or cells: E. coli carrying pBAD-A-rhlR mutant, pCS26-prhlA-luxCDABE and pACYC-pqsE or empty pACYC
T1 sequence (P54292 1-241 T58V): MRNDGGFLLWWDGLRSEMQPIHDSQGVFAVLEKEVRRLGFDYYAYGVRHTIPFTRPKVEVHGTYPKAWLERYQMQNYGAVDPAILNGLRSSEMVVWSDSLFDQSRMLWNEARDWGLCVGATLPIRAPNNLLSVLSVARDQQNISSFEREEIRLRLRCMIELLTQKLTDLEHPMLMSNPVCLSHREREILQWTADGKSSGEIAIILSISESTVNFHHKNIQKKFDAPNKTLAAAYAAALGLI
Put plainly: E. coli prhlA-luxCDABE luciferase reporter assay. The class given is cell-based. From the text:
(§1) Previous analysis of the RhlR LBP focused on highly conserved residues that were known from other AHL-binding proteins to be important contacts for AHL molecules, particularly the lactone head group. We performed conservation analyses on 300 LuxR-type receptors to determine variable and moderately conserved residues in the LBP (Fig. 1B) and, in conjunction with our previously determined experimental structure of WT RhlR bound to the synthetic agonist mBTL, used for docking C4- and C6HSL. Based on our docking simulations, C4- and C6HSL occupy a similar position in the LBP as mBTL, a highly efficacious activator of RhlR (Fig. 1C; Fig. S1). We targeted residues A44, G46, T58, L69, Y72, D81, I84, W96, and W108 (Fig. 1B and C). These residues were selected because of their proximity to the acyl tail of C4HSL, as well as the differences in conservation that are observed at these sites. We used an E. coli luciferase reporter assay to monitor ligand-dependent activation of WT RhlR and RhlR variants. WT RhlR and RhlR variants were expressed under the control of an arabinose-inducible promoter (Fig. S2). Transcription was monitored by light production via the expression of the luxCDABE operon controlled by the RhlR-dependent promoter of rhlA. Binding of RhlR to the rhlA promoter is highly dependent on the C4HSL-RhlR interaction, based on ChIP-seq analyses performed in P. aeruginosa as well as previously published E. coli reporter systems ([34], [39]). After expressing WT RhlR and RhlR variants in the E. coli reporter system, we performed dose response assays using C4HSL to calculate the concentration of C4HSL required to activate the reporter system to 50% maximum levels (EC50 value; Table 1). As expected, transcription activation by WT RhlR increased with increased C4HSL levels, with an EC50 value of ~2 µM. We observed a range of responses. Figure 1C depicts the targeted residues, which are colored based on the effect of amino acid substitution.
(§2) RhlR requires the accessory-binding protein, PqsE, for maximal activity. To determine if PqsE expression altered the activation of RhlR variants, we assessed AHL-dependent RhlR activation of the prhlA-luxCDABE reporter in the presence of a third plasmid that constitutively expresses PqsE in E. coli. […] RhlR variants that were still active but with increased EC50 values for C4HSL could have their activity enhanced by PqsE. […] Thus, alterations to the LBP can diminish the additive effect of PqsE-dependent transcription, indicating a potential role of allosteric conformational changes dependent on ligand occupancy. […] RhlR variants at residues I84 and W108 could not be activated by C4HSL, and thus, light levels remained low at all concentrations that were tested. Unlike the aforementioned variants, RhlR I84M/W and RhlR W108F/Y were activated by the expression of PqsE (Fig. S4).
(§3) All E. coli strains in this study were grown overnight with shaking in 5 mL Luria-Bertani (LB) media supplemented with 100 µg/mL ampicillin, 50 µg/mL kanamycin, and 15 µg/mL tetracycline at 37°C overnight. Overnight cultures were diluted 1:100 into fresh media, grown at 37°C with shaking for 2 h until reaching OD600 = 0.4. Cultures were induced with a final concentration of 0.1% arabinose, and 198 μL of the induced culture was mixed with 2 μL of C4HSL dilutions in a clear-bottom, black-opaque 96-well plate (Corning) and grown at 37°C with shaking for 4 h. The C4HSL dilution series was performed 1:1 in dimethyl sulfoxide (DMSO) with a top final concentration of 10 μM. Luminescence and optical density were recorded using a Glomax (Promega) plate reader.

For another experiment, the target named is T2, WT RhlR (Pseudomonas aeruginosa, UniProt P54292).
T2 construct: expressed in transfected cells; host or cells: E. coli carrying pBAD-A-rhlR, pCS26-prhlA-luxCDABE and pACYC-pqsE or empty pACYC
T2 sequence (P54292 1-241): T1 sequence (P54292 1-241 T58V) with V58T
The experiment in a line: E. coli prhlA-luxCDABE luciferase reporter assay. The class given is cell-based. To be noted: read-out: EC50.
From the text: as §1, §2, §3
A general note: Reporter assays use an easily measured gene product as a stand-in for the process of interest.

Another experiment concerns the target T3, RhlR (T58F) (Pseudomonas aeruginosa, UniProt P54292, T58F).
T3 construct: expressed in transfected cells; host or cells: E. coli carrying pBAD-A-rhlR mutant, pCS26-prhlA-luxCDABE and pACYC-pqsE or empty pACYC
T3 sequence (P54292 1-241 T58F): T1 sequence (P54292 1-241 T58V) with V58F
Put plainly: E. coli prhlA-luxCDABE luciferase reporter assay. The class given is cell-based, Escherichia coli.
From the text: as §1, §2, §3

For a further experiment, the target named is T4, RhlR (T58L) (Pseudomonas aeruginosa, UniProt P54292, T58L).
T4 construct: expressed in transfected cells; host or cells: E. coli carrying pBAD-A-rhlR mutant, pCS26-prhlA-luxCDABE and pACYC-pqsE or empty pACYC
T4 sequence (P54292 1-241 T58L): T1 sequence (P54292 1-241 T58V) with V58L
Put plainly: E. coli prhlA-luxCDABE luciferase reporter assay. It is filed as cell-based, Escherichia coli.
From the text: as §1, §2, §3

A further experiment has as its target T5, RhlR (T58I) (Pseudomonas aeruginosa, UniProt P54292, T58I).
T5 construct: expressed in transfected cells; host or cells: E. coli carrying pBAD-A-rhlR mutant, pCS26-prhlA-luxCDABE and pACYC-pqsE or empty pACYC
T5 sequence (P54292 1-241 T58I): T1 sequence (P54292 1-241 T58V) with V58I
Put plainly: E. coli prhlA-luxCDABE luciferase reporter assay. It is filed as cell-based, Escherichia coli.
From the text: as §1, §2, §3

The next experiment concerns the target 6x-His-PqsE (Pseudomonas aeruginosa, UniProt P20581 1-301). Put plainly: cell-based or functional assay.

Take `CCCCCCCCCC(=O)CC(=O)N[C@H]1CCOC1=O` [3OC12HSL, N-(3-oxododecanoyl)-L-homoserine lactone]: the EC50 in the experiment with LasR was roughly 2 nM.

In the case of `CCCCCC(=O)N[C@H]1CCOC1=O` [C6HSL], the EC50 amounted to 809 nM on RhlR (T58V) (Vector (no pqsE)); 111 nM at RhlR (T58V) (pqsE co-expressed); 12600 nM at WT RhlR (Vector (no pqsE)); 9240 nM on WT RhlR (pqsE co-expressed); 580 nM on RhlR (T58F) (Vector (no pqsE)); 103 nM at RhlR (T58F) (pqsE co-expressed). Further, the EC50 at RhlR (T58L) (Vector (no pqsE)) was found to be 168 nM; at RhlR (T58L) (pqsE co-expressed) it was 0.908 nM; at RhlR (T58I) (Vector (no pqsE)), 561 nM; on RhlR (T58I) (pqsE co-expressed), 51.1 nM.

B1: WT RhlR (receptor)
chain: T1 sequence (P54292 1-241 T58V) with V58T
On to B1, for which the “prhlA-luxCDABE reporter in E. coli: C4HSL-RhlR-dependent expression with PqsE expressed from a third plasmid (pACYC) against the empty vector” value in the experiment with 6x-His-PqsE was roughly 20 fold.

In general, EC50 refers to the concentration at which the effect is half-maximal.
